This is an account of results in patent publication US20260158056A1, “USE OF LOW MOLECULAR WEIGHT HYALURONIC ACID FOR THE TREATMENT OF LUNG MUCOSAL INFLAMMATION” (INSTITUT NATIONAL DE LA SANTÉ ET DE LA RECHERCHE MÉDICALE, priority 2021, published 2026).

The test has as its system IL-8 secreted by F508del/F508del CF human airway epithelial cells. Kind of test: IL-8 ELISA, CF airway epithelial cells cultured at the air-liquid interface (ALI), treatment during regeneration and differentiation. It is filed as cell-based. How it is done: FIG. 1: Measurement by ELISA assay of the pro-inflammatory chemokine IL-8 secreted by F508del/F508del CF human airway epithelial cells cultured at the air-liquid interface (ALI). Airway epithelial cells were seeded in bi-compartmental chambers and cultured in liquid-liquid condition until confluence was reached. At confluence, culture medium from the upper chamber was removed to create an air-liquid interface (ALI) that will favor epithelial cell differentiation. From the ALI creation, the different treatments (15-45 kDa sodium-hyaluronic acid (HA-Na 15-45 kDa) (ARD—Pomacle—France—as prepared according to WO2004050187), 15-30 kDa sodium-hyaluronic acid (HA-Na 15-30 kDa) (Sigma Aldrich) or 30-50 kDa sodium-hyaluronic acid (HA-Na 30-50 kDa) (Sigma Aldrich) were added at 1 mg/mL to the culture medium in the basal chamber. The culture medium was renewed three times a week. At ALI day 15, the culture medium was replaced by fresh medium without any treatment. After a 4 h-period, this culture medium was collected and the IL-8 content was determined by ELISA assay. n=5 different F508del/F508del CF patients. p<0.001 (***); p<0.01 (**); p<0.05 (*). ns: non-significant.
FIG. 4: Measurement by ELISA assay of the pro-inflammatory chemokine IL-8 secreted by F508del/F508del CF human airway epithelial cells cultured at the air-liquid interface (ALI). Airway epithelial cells were seeded in bi-compartmental chambers and cultured in liquid-liquid condition until confluence was reached. At confluence, culture medium from the upper chamber was removed to create an air-liquid interface (ALI) that will favor epithelial cell differentiation. From the ALI creation, the different treatments (15-45 kDa sodium-hyaluronic acid (HA-Na 15-45 kDa) (ARD—Pomacle—France—as prepared according to WO2004050187), 15-45 kDa calcium-hyaluronic acid (HA-Ca 15-45 kDa; ARD), or 15-45 kDa potassium-hyaluronic acid (HA-K 15-45 kDa; ARD) were added at 1 mg/mL to the culture medium in the basal chamber. The culture medium was renewed three times a week. At ALI day 15, the culture medium was replaced by fresh medium without any treatment. After a 4 h-period, this culture medium was collected and the IL-8 content was determined by ELISA assay. n=4 different F508del/F508del CF patients. p<0.001 (***); p<0.01 (**); p<0.05 (*). ns: Non-significant.
FIG. 7: Measurement by ELISA assay of the pro-inflammatory chemokine IL-8 secreted by F508del/F508del CF human airway epithelial cells cultured at the air-liquid interface (ALI). Airway epithelial cells were seeded in bi-compartmental chambers and cultured in liquid-liquid condition until confluence was reached. At confluence, culture medium from the upper chamber was removed to create an air-liquid interface (ALI) that will favor epithelial cell differentiation. From the ALI creation, 15-45 kDa sodium-hyaluronic acid (HA-Na 15-45 kDa) (ARD—Pomacle—France—as prepared according to WO2004050187) was added at 0.1 mg/mL, 0.5 mg/mL, 1 mg/mL and 2 mg/mL to the culture medium in the basal chamber. The culture medium was renewed three times a week. At ALI day 15, the culture medium was replaced by fresh medium without any treatment. After a 4 h-period, this culture medium was collected and the IL-8 content was determined by ELISA assay. n=3 different F508del/F508del CF patients. p<0.001 (***); p<0.01 (**); p<0.05 (*). ns: non-significant.

The mark [1] stands for this setting: FIG. 1, 1 mg/mL from ALI creation, ALI day 15, vs control condition, n=5 CF patients.
Setting [2] is: FIG. 4, 1 mg/mL from ALI creation, ALI day 15, vs control condition, n=4 CF patients.

Turning to “15-45 kDa sodium-hyaluronic acid [HA-Na 15-45 kDa]”, the “decrease in IL-8 secretion” value reads like this: under setting [1], 52%; under setting [2], 55.5%; (FIG. 7, 0.1 mg/mL, ALI day 15, n=3 CF patients) “does not have anymore effect”; (FIG. 7, 0.5 mg/mL, ALI day 15, n=3 CF patients) 47.3%; (FIG. 7, 1 mg/mL, ALI day 15, n=3 CF patients) 62%; (FIG. 7, 2 mg/mL, ALI day 15, n=3 CF patients) 65%.

As to “15-45 kDa calcium-hyaluronic acid [HA-Ca 15-45 kDa]”, the “decrease in IL-8 secretion” value under setting [2] is reported as 59.25%.

On to “15-30 kDa sodium-hyaluronic acid [HA-Na 15-30 kDa]”, for which the “decrease in IL-8 secretion” value under setting [1] is recorded as 57%.

In the case of “30-50 kDa sodium-hyaluronic acid [HA-Na 30-50 kDa]”, the “decrease in IL-8 secretion” value under setting [1] is listed as 67.2%.
